In US20220389003A1, “4-SUBSTITUTED INDOLE AND INDAZOLE SULFONAMIDO DERIVATIVES AS PARG INHIBITORS” (IDEAYA BIOSCIENCES, INC., priority 2019, published 2022):
Like-named read-outs stand apart in the source and are kept apart here.

Key:
[1] = tested on: HCC1806-XRCC1 KD (knock down) cells; assay: Cellular viability assay (Cell Titer-Glo); type: cell-based; settings: HCC1806-shXRCC1 cells, 4 days of incubation, read-out: PARGi cell viability
Method: HCC1806-XRCC1 KD (knock down) cells were plated at 2000 cells/well in 96-well white plates with clear flat bottom. After 24 hours, the compounds of the disclosure were added starting at 30 μM for a 9-point dose response curve at 1:3 dilution. The compounds of the disclosure were added by Tecan digital dispenser excluding the outermost wells of the plate. All treatments were done in duplicates. After 4 days of incubation, 50 ul of Cell Titer-Glo (Promega) was added per well. After incubation with the reagent for 15 minutes, luminescence was read using a plate reader (TECAN). Average values of DMSO treated wells in a plate was calculated. All data points were normalized to that of the average DMSO value. The % of control for each sample compared to DMSO treated control samples. Curves are fit as % of control vs. log [compound concentration] using a 4 parameter inhibition model (Levenberg-Marquardt algorithm):
Fit=(A+((B−A)/(1+((C/x)^D))))

PARG [2] = target: T1, PARG (Homo sapiens, UniProt Q86W56); assay: Inhibition of PARG enzymatic assay (TR-FRET enzymatic IC50 assay); type: biochemical; parameters: purchased Peak Proteins; settings: hPARG 250 pM, biotinylated-PARylated PARP substrate 30 nM
T1 sequence (Q86W56 whole entry): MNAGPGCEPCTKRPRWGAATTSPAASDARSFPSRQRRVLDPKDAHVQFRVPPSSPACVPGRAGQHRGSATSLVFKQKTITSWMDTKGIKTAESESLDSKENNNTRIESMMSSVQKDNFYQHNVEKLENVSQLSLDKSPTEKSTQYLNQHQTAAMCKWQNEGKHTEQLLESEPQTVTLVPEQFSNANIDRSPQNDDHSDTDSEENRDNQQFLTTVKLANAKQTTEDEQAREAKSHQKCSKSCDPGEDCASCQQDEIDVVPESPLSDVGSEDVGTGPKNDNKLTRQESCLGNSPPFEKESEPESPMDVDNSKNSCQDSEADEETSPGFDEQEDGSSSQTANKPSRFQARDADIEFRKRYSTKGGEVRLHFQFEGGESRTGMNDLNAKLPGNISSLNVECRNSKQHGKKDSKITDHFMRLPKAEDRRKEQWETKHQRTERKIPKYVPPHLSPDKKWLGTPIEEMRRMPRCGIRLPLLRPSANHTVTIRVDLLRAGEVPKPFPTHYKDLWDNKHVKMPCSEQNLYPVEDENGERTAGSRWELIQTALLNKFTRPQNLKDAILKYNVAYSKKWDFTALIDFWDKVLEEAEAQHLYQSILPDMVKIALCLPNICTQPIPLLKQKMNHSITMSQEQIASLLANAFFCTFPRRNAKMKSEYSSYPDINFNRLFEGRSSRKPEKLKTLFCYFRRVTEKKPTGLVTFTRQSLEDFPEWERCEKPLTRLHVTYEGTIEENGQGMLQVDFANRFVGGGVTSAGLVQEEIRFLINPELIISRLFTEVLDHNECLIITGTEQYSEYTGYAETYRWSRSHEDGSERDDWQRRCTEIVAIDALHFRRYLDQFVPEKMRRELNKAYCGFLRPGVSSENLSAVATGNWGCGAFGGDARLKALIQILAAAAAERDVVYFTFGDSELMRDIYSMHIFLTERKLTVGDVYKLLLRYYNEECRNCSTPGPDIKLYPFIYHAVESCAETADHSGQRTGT
Method: PARG enzyme was incubated with compound or vehicle (DMSO) and the biotinylated-PARylated PARP substrate in a microtiter plate. After adding detection antibody and streptavidin-europium, and then incubating, the plate was read for fluorescence intensity. The low control (DMSO) with low fluorescence intensity represents no inhibition of enzymatic reaction while the high control (no enzyme) with high fluorescence intensity represents full inhibition of enzymatic reaction.
• PARG • hPARG: 250 pM, His-tagged, Peak Proteins, 0.96 mg/mL (8.58 μM) • Substrate: 30 nM • Reaction time: 70 minutes • Substrate: hPARP1, His- and TEV-tagged, Peak Proteins, 14 μM • Detection Antibody: anti-His monoclonal antibody-ULight, Perkin Elmer catalog #TRF0105-M • Streptavidin-Europium: Perkin Elmer catalog #AD0062 • Assay buffer: 50 mM Tris-HCl pH 7.4, 50 mM KCl, 3 mM EDTA, 0.4 mM EGTA, 1 mM DTT, 0.01% Tween 20, 0.01% BSA • Temperature: 23° C. • Total volume: 20 μL
• 0% inhibition control: DMSO • 100% inhibition control: No enzyme
• 1. Transfer 5 μL of 3× final concentration of test compounds or DMSO to the appropriate wells of a microtiter plate. • 2. Centrifuge the plate at 1000 rpm for 1 minute. • 3. Transfer 5 μL of 3× final concentration of enzyme in assay buffer or assay buffer alone to the appropriate wells. • 4. Centrifuge the plate at 1000 rpm for 1 minute. • 5. Incubate the plate at room temperature for 1 hour. • 6. Transfer 5 μL of 3× substrate in assay buffer to all the test wells. • 7. Centrifuge the plate at 1000 rpm for 1 minute. • 8. Incubate the plate at room temperature for 10 minutes. • 9. Transfer 5 μL of 3× mixture of detection antibody and streptavidin-europium in assay buffer to all the test wells. • 10. Centrifuge the plate at 1000 rpm for 1 minute. • 11. Incubate the plate at room temperature for 1 hour. • 12. Read the plate on a plate reader (e.g., Infinite M1000).

PARG [3] = target: T1, PARG; assay: Inhibition of PARG cellular assay (PAR foci in HeLa cells after MMS); type: cell-based; parameters: endogenous in cells; host or cells: HeLa; settings: compound 1 h then MMS 1 h
Method: The ability of the compounds disclosed herein to inhibit PARG was determined as described below. Briefly, after treating HeLa cells with the compounds of the disclosure for 1 h, followed by treatment with DNA alkylating agent methylmethanesulfonate (MMS) for an additional 1 h, the cells were fixed in 3.7% formaldehyde. The cells were permeabilized in 0.5% Triton-X100, blocked in 5% goat serum, and incubated with mouse monoclonal antibody against poly (ADP) ribose (PAR) polymer overnight at 4° C. The cells were washed and incubated with an Alexafluor 488-linked secondary antibody together with a nuclear stain (Hoechst 33342) for an hour at room temperature. After washing, images of the cells were captured and analyzed on a high content imaging microscope and software. Two measurement of PAR chain were quantified with the mean intensity over background of the nuclear foci (fluorescent signal at 488 nm range 0.3-2.0 μm foci) quantified as PAR foci (PAR Foci IC50). The cells with a PAR foci signal >1.3 was considered as positive (PAR % positive IC50), and the percentage positive cells are quantified.

Molecule | IC50 ([1]; 96 h) [µM] | IC50 (PARG [2]) [µM] | IC50 (PARG [3]) [µM] | IC50 [1] [µM]
N#CC1(NS(=O)(=O)c2cc(N3CC[C@H]4COC[C@H]4C3)c3cnn(-c4nnc(C(F)F)s4)c3c2)CC1 (relative stereo) [Example 56, 1-[({1-[5-(difluoromethyl)(1,3,4-thiadiazol-2-yl)]-4-(cis-8-oxa-3-azabicyclo-[4.3.0]non-3-yl)-1H-indazol-6-yl}sulfonyl)amino]cyclopropanecarbonitrile] | 10 to 20 | 0.3 to 1 | – | –
N#CC1(NS(=O)(=O)c2cc(-c3ccc4cn[nH]c4c3)c3cnn(-c4nnc(C(F)F)s4)c3c2)CC1 [Example 2, 1-[({4-(1H-indazol-6-yl)-1-[5-(difluoromethyl)(1,3,4-thiadiazol-2-yl)]-1H-indazol-6-yl}sulfonyl)amino]cyclopropanecarbonitrile] | 20 to 30 | 1 to 10 | – | –
CN(C)C(=O)c1ccc(-c2cc(S(=O)(=O)NC3(C#N)CC3)cc3c2cnn3-c2nnc(C(F)F)s2)cc1 [Example 3, [4-(1-[5-(difluoromethyl)(1,3,4-thiadiazol-2-yl)]-6-{[(cyanocyclopropyl)amino]sulfonyl}(1H-indazol-4-yl))phenyl]-N,N-dimethylcarboxamide] | 10 to 20 | 0.1 to 0.3 | – | –
CN(C)C(=O)c1cccc(-c2cc(S(=O)(=O)NC3(C#N)CC3)cc3c2cnn3-c2nnc(C(F)F)s2)c1 [Example 4, [3-(1-[5-(difluoromethyl)(1,3,4-thiadiazol-2-yl)]-6-{[(cyanocyclopropyl)amino]sulfonyl}(1H-indazol-4-yl))phenyl]-N,N-dimethylcarboxamide] | 20 to 30 | 0.3 to 1 | – | –
N#CC1(NS(=O)(=O)c2cc(N3CCC4(COC4)C3)c3cnn(-c4nnc(C(F)F)s4)c3c2)CC1 [Example 34, 1-[({1-[5-(difluoromethyl)(1,3,4-thiadiazol-2-yl)]-4-(2-oxa-6-azaspiro[3.4]oct-6-yl)-1H-indazol-6-yl}sulfonyl)amino]cyclopropanecarbonitrile] | 20 to 30 | 0.3 to 1 | – | –
Cn1cnnc1N1CCN(c2cc(S(=O)(=O)NC3(C#N)CC3)cc3c2cnn3-c2nnc(C(F)F)s2)CC1 [Example 36, 1-[({1-[5-(difluoromethyl)(1,3,4-thiadiazol-2-yl)]-4-[4-(4-methyl(1,2,4-triazol-3-yl))piperazinyl]-1H-indazol-6-yl}sulfonyl)amino]cyclopropanecarbonitrile] | 10 to 20 | ≤ 0.1 | – | –
CNC(=O)C1CCN(c2cc(S(=O)(=O)NC3(C#N)CC3)cc3c2cnn3-c2nnc(C(F)F)s2)C1 (stereo not drawn) [Example 53, [1-(1-[5-(difluoromethyl)(1,3,4-thiadiazol-2-yl)]-6-{[(cyanocyclopropyl)amino]sulfonyl}(1H-indazol-4-yl))pyrrolidin-3-yl]-N-methylcarboxamide] | 10 to 20 | 0.1 to 0.3 | – | –
CN(C)C(=O)C1CCN(c2cc(S(=O)(=O)NC3(C#N)CC3)cc3c2cnn3-c2nnc(C(F)F)s2)C1 (stereo not drawn) [Example 54, [1-(1-[5-(difluoromethyl)(1,3,4-thiadiazol-2-yl)]-6-{[(cyanocyclopropyl)amino]sulfonyl}(1H-indazol-4-yl))pyrrolidin-3-yl]-N,N-dimethylcarboxamide] | 10 to 20 | 0.1 to 0.3 | – | –
COC(=O)N1CCN(c2cc(S(=O)(=O)NC3(C#N)CC3)cc3c2cnn3-c2nnc(C(F)F)s2)CC1 [Example 58, methyl 4-(1-[5-(difluoromethyl)(1,3,4-thiadiazol-2-yl)]-6-{[(cyanocyclopropyl)amino]sulfonyl}-1H-indazol-4-yl)piperazinecarboxylate] | 1 to 10 | ≤ 0.1 | – | –
N#CC1(NS(=O)(=O)c2cc(N3CCN4C(=O)OC[C@H]4C3)c3cnn(-c4nnc(C(F)F)s4)c3c2)CC1 [Example 61, 1-[({4-((1R)-7-oxo-8-oxa-3,6-diazabicyclo[4.3.0]non-3-yl)-1-[5-(difluoromethyl) (1,3,4-thiadiazol-2-yl)]-1H-indazol-6-yl}sulfonyl)amino]cyclopropanecarbonitrile] | 1 to 10 | ≤ 0.1 | – | –
CN1CCCN(c2cc(S(=O)(=O)NC3(C#N)CC3)cc3c2cnn3-c2nnc(C(F)F)s2)CC1 [Example 63, 1-[({1-[5-(difluoromethyl)(1,3,4-thiadiazol-2-yl)]-4-(4-methyl(1,4-diazaperhydroepinyl))-1H-indazol-6-yl}sulfonyl)amino]cyclopropanecarbonitrile] | 10 to 20 | ≤ 0.1 | – | –
N#CC1(NS(=O)(=O)c2cc(N3CCC(C(F)F)CC3)c3cnn(-c4nnc(C(F)F)s4)c3c2)CC1 [Example 64, 1-[({1-[5-(difluoromethyl)(1,3,4-thiadiazol-2-yl)]-4-[4-(difluoromethyl)piperidyl]-1H-indazol-6-yl}sulfonyl)amino]cyclopropanecarbonitrile] | 20 to 30 | 1 to 10 | – | –
CNC(=O)N1CCN(c2cc(S(=O)(=O)NC3(C#N)CC3)cc3c2cnn3-c2nnc(C(F)F)s2)CC1 [Example 74, 4-(6-(N-(1-cyanocyclopropyl)sulfamoyl)-1-(5-(difluoromethyl)-1,3,4-thiadiazol-2-yl)-1H-indazol-4-yl)-N-methylpiperazine-1-carboxamide] | 1 to 10 | ≤ 0.1 | – | –
CNC(=O)C1CN(c2cc(S(=O)(=O)NC3(C#N)CC3)cc3c2cnn3-c2nnc(C(F)F)s2)C1 [Example 75, 1-(6-(N-(1-cyanocyclopropyl)sulfamoyl)-1-(5-(difluoromethyl)-1,3,4-thiadiazol-2-yl)-1H-indazol-4-yl)-N-methylazetidine-3-carboxamide] | 20 to 30 | 0.3 to 1 | – | –
CN(C)CCN(C)C(=O)N1CCN(c2cc(S(=O)(=O)NC3(C#N)CC3)cc3c2cnn3-c2nnc(C(F)F)s2)CC1 [Example 76, [4-(1-[5-(difluoromethyl)(1,3,4-thiadiazol-2-yl)]-6-{[(cyanocyclopropyl)amino]sulfonyl}(1H-indazol-4-yl))piperazinyl]-N-[2-(dimethylamino)ethyl]-N-methylcarboxamide] | 1 to 10 | ≤ 0.1 | – | –
CN1CC2(CCN(c3cc(S(=O)(=O)NC4(C#N)CC4)cc4c3cnn4-c3nnc(C(F)F)s3)CC2)C1 [Example 92, 1-[({1-[5-(difluoromethyl)(1,3,4-thiadiazol-2-yl)]-4-(2-methyl-2,7-diazaspiro-[3.5]non-7-yl)-1H-indazol-6-yl}sulfonyl)amino]cyclopropanecarbonitrile] | 10 to 20 | 0.3 to 1 | – | –
N#CC1(NS(=O)(=O)c2cc(N3CCC(F)(F)CC3)c3cnn(-c4nnc(C(F)F)s4)c3c2)CC1 [Example 105, 1-[({1-[5-(difluoromethyl)(1,3,4-thiadiazol-2-yl)]-4-(4,4-difluoropiperidyl)-1H-indazol-6-yl}sulfonyl)amino]cyclopropanecarbonitrile] | – | 1 to 10 | 0.3 to 1 | –
[4-(1-[5-(difluoromethyl)(1,3,4-thiadiazol-2-yl)]-6-{[(cyanocyclopropyl)amino]sulfonyl}(1H-indazol-4-yl))(1,4-diazaperhydroepinyl)]-N-methylcarboxamide [Example 31] | – | 0.3 to 1 | – | 10 to 20
